The text below walks through data of patent US11332485B2, “Penicillin-binding protein inhibitors” (priority 2017, dated 2022).

In general, EC50 refers to the midpoint of the concentration-response curve. The low end stands for higher potency in that assay, the high end for lower potency in that assay.

Some results are limits rather than exact numbers.

The test system of test [1] is E. coli DH5α/pLBII. Nature of the test: Broth microdilution MIC assay, empty vector control strain. It is filed as cell-based. The conditions noted are these: Escherichia coli, read-out: E. coli DH5α/pLBII Microbiological Activity (MIC). The procedure, abridged: (§1)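 CLSI broth microdilution in cation-supplemented Mueller-Hinton broth, 2-fold compound dilutions, 5×10^5 CFU/mL inoculum, 16-20 h at 37° C, MIC read visually as lowest concentration without growth. E. coli DH5α carries CTX-M15 on pLBII under Lac promoter, or empty pLBII as control.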

Test [2] concerns the target T1, PBP3 from Escherichia coli (Escherichia coli, UniProt P0AD68).
T1 construct: made in house
The experiment in a line: Fluorescence polarization competition binding assay with Bocillin-FL. An excerpt: To determine the ability of boronic acid-based test PBP inhibitors to bind Penicillin Binding Proteins (PBPs), Bocillin-FL (fluorescently-labeled penicillin V; ThermoFisher Scientific) was used in a fluorescence polarization (FP) competition binding assay to assess boronic acid PBP inhibitor binding to PBP3 from Escherichia coli. PBP3 from Escherichia coli was cloned and purified as described previously (King, D. T, et al., ACS Infectious Diseases 2015, 1, 175-184). To establish assay conditions for competition binding, an enzyme titration/saturation binding experiment was performed. Bocillin-FL was prepared at […] in a buffer comprised of 50 mM Hepes (pH 8.0), 300 mM NaCl and 5% (v/v) glycerol. Saturation binding was performed by mixing […] of PBP3 ranging in concentrations from […] with 40 μl of the 0.2 μM Bocillin-FL solution, in individual wells of a black 384-well microplate. FP was measured immediately upon addition of PBP3 (Ex, Em), using a Cytation3 (BioTek) microplate reader and measured continuously for 60 minutes. […] The competition binding assay was validated using the beta-lactam ampicillin, with Bocillin-FL at a final concentration of 0.1 μM, PBP3 at a final concentration of 1.5 μM and concentrations of ampicillin from 0-1000 μM. PBP3 was incubated with ampicillin at different concentrations in a black 384-well microplate (Corning) for 30 minutes, then Bocillin-FL added and the FP immediately measured for 60 minutes. […] Binding assays for boronic acid PBP inhibitors were performed in an identical fashion. Representative results are shown in Table 3, where A represents a potency of >500 μM, B represents a potency between 30 μM and 500 μM inclusive, and C represents a potency of <30 μM. NT=Not Tested.
(In fluorescence polarisation assays a small probe gives low polarisation when free and higher when bound to something large.)

The subject of test [3] is E. coli DH5α/pLBII-CTX-M15. The experiment in a line: Broth microdilution MIC assay, engineered strain producing CTX-M15. Type of test: cell-based, Escherichia coli. As to conditions: Escherichia coli, read-out: E. coli DH5α/pLBII-CTX-M15 Microbiological Activity (MIC). The procedure, abridged: as §1
In general terms: In broth dilution the organism is exposed to a series of concentrations in liquid medium.

For test [4], the system named is hyper-permeable E. coli 901C. The experiment in a line: Broth microdilution MIC assay. It is filed as cell-based. The conditions noted are these: Escherichia coli, read-out: E. coli 901C MIC. A digest of the protocol:
(§2)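 MIC taken by eye as the lowest compound concentration showing no growth after 16-20 hours at 37° C. Cultures grown 3-5 h in cation-supplemented Mueller-Hinton broth were added to 2-fold compound dilution series at a starting density of 5×10^5 CFU/mL, following CLSI methods.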

The test system of test [5] is S. aureus ATCC 29213. The experiment in a line: Broth microdilution MIC assay. The conditions noted are these: Staphylococcus aureus, ATCC29213; broth microdilution, 16-20 hours at 37° C.; read-out: S. aureus 29213 MIC. Type of test: cell-based. The procedure, abridged:
as §2

T1 sequence (P0AD68 1-577): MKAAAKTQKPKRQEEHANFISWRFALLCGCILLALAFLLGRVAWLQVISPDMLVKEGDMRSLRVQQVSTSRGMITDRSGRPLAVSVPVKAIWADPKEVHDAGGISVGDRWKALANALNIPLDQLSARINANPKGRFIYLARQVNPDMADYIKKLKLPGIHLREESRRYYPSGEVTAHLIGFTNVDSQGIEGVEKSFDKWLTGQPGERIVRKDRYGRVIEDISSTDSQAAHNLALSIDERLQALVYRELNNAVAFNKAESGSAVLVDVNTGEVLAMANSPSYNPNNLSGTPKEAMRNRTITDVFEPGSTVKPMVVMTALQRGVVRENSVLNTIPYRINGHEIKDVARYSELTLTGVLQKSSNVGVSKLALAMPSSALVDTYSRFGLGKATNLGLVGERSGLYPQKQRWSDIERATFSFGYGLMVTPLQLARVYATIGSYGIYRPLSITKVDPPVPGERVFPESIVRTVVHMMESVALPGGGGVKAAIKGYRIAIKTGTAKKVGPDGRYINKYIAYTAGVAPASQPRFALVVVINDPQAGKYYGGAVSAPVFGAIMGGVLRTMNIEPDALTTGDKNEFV

In the case of `CCN1CCN(C(=O)N[C@@H](C(=O)N[C@H]2Cc3cccc(C(=O)O)c3OB2O)c2ccccc2)C(=O)C1=O` [Example 11, (R)-3-((R)-2-(4-ethyl-2,3-dioxopiperazine-1-carboxamido)-2-phenylacetamido)-2-hydroxy-3,4-dihydro-2H-benzo[e][1,2]oxaborinine-8-carboxylic acid], the MIC in test [1] was 32 to 64 µg/mL; in test [3], 32 to 64 µg/mL; in test [4], less than 64 µg/mL; in test [5] it was 64 to 128 µg/mL. Also, the EC50 in test [2] is less than 30 µM.

As to `CCN1CCN(C(=O)N[C@@H](CO)C(=O)N[C@H]2Cc3cccc(C(=O)O)c3OB2O)C(=O)C1=O` [Example 32, (R)-3-((S)-2-(4-Ethyl-2,3-dioxopiperazine-1-carboxamido)-3-hydroxy-propanamido)-2-hydroxy-3,4-dihydro-2H-benzo[e][1,2]oxaborinine-8-carboxylic acid], the MIC in test [1] was greater than 512 µg/mL; in test [3], greater than 512 µg/mL; in test [4] it was greater than 128 µg/mL; in test [5], greater than 128 µg/mL. In test [2], this compound gave an EC50 greater than 500 µM.

Regarding `Nc1nc(C(NC(=O)N2CCN(Cc3ccccc3)C(=O)C2=O)C(=O)N[C@H]2Cc3cccc(C(=O)O)c3OB2O)cs1` (stereo partly drawn) [Example 49, (3R)-3-(2-(2-aminothiazol-4-yl)-2-(4-benzyl-2,3-dioxopiperazine-1-carboxamido)acetamido)-2-hydroxy-3,4-dihydro-2H-benzo[e][1,2]oxaborinine-8-carboxylic acid], the MIC in test [1] was 128 to 256 µg/mL; in test [3], 128 to 256 µg/mL; in test [4] it was less than 64 µg/mL; in test [5], 64 to 128 µg/mL. Moreover, in test [2], the EC50 was less than 30 µM.

In the case of `CCN1CCN(C(=O)N[C@H](CCC(N)=O)C(=O)N[C@H]2Cc3cccc(C(=O)O)c3OB2O)C(=O)C1=O` [Example 50, (R)-3-((R)-5-amino-2-(4-ethyl-2,3-dioxopiperazine-1-carboxamido)-5-oxopentanamide)-2-hydroxy-3,4-dihydro-2H-benzo[e][1,2]oxaborinine-8-carboxylic acid], the MIC in test [1] is 32 to 64 µg/mL; in test [3] it was 32 to 64 µg/mL; in test [4], less than 64 µg/mL; in test [5], greater than 128 µg/mL. The same compound showed an EC50 in test [2] greater than 500 µM.

As to `Nc1nc(C(NC(=O)N2CCN(CCF)C(=O)C2=O)C(=O)N[C@H]2Cc3cccc(C(=O)O)c3OB2O)cs1` (stereo partly drawn) [Example 52, (3R)-3-(2-(2-aminothiazol-4-yl)-2-(4-(2-fluoroethyl)-2,3-dioxopiperazine-1-carboxamido)acetamido)-2-hydroxy-3,4-dihydro-2H-benzo[e][1,2]oxaborinine-8-carboxylic acid], the MIC in test [1] was 8 to 16 µg/mL; in test [3], 8 to 16 µg/mL; in test [4] it was less than 64 µg/mL; in test [5] it was 64 to 128 µg/mL. In addition, in test [2], the EC50 is 30 to 500 µM.

For `CCCCN1CCN(C(=O)NC(C(=O)N[C@H]2Cc3cccc(C(=O)O)c3OB2O)c2csc(N)n2)C(=O)C1=O` (stereo partly drawn) [Example 53, (3R)-3-(2-(2-aminothiazol-4-yl)-2-(4-butyl-2,3-dioxopiperazine-1-carboxamido)acetamido)-2-hydroxy-3,4-dihydro-2H-benzo[e][1,2]oxaborinine-8-carboxylic acid], the MIC was 32 to 64 µg/mL in test [1], 32 to 64 µg/mL in test [3], less than 64 µg/mL in test [4] and 64 to 128 µg/mL in test [5]. Moreover, the EC50 in test [2] was less than 30 µM.

With `CC(C)N1CCN(C(=O)NC(C(=O)N[C@H]2Cc3cccc(C(=O)O)c3OB2O)c2csc(N)n2)C(=O)C1=O` (stereo partly drawn) [Example 55, (3R)-3-(2-(2-aminothiazol-4-yl)-2-(4-isopropyl-2,3-dioxopiperazine-1-carboxamido)acetamido)-2-hydroxy-3,4-dihydro-2H-benzo[e][1,2]oxaborinine-8-carboxylic acid], the MIC in test [1] is 8 to 16 µg/mL; in test [3], 8 to 16 µg/mL; in test [4], less than 64 µg/mL; in test [5], 64 to 128 µg/mL. In addition, in test [2], the EC50 lay within 30 to 500 µM.

As to `Nc1nc(C(NC(=O)N2CCN(CCF)C(=O)C2=O)C(=O)N[C@H]2Cc3cccc(C(=O)O)c3OB2O)c(Cl)s1` (stereo partly drawn) [Example 57, (3R)-3-(2-(2-amino-5-chlorothiazol-4-yl)-2-(4-(2-fluoroethyl)-2,3-dioxopiperazine-1-carboxamido)acetamido)-2-hydroxy-3,4-dihydro-2H-benzo[e][1,2]oxaborinine-8-carboxylic acid], the MIC in test [1] is 8 to 16 µg/mL; in test [3], 8 to 16 µg/mL; in test [4], less than 64 µg/mL; in test [5] it was greater than 128 µg/mL. Also, the EC50 in test [2] lay within 30 to 500 µM.

Turning to `NCCN1CCN(C(=O)NC(C(=O)N[C@H]2Cc3cccc(C(=O)O)c3OB2O)c2csc(N)n2)C(=O)C1=O` (stereo partly drawn) [Example 58, (3R)-3-(2-(4-(2-aminoethyl)-2,3-dioxopiperazine-1-carboxamido)-2-(2-aminothiazol-4-yl)acetamido)-2-hydroxy-3,4-dihydro-2H-benzo[e][1,2]oxaborinine-8-carboxylic acid], the MIC in test [1] is 32 to 64 µg/mL; in test [3], 32 to 64 µg/mL; in test [4], less than 64 µg/mL; in test [5], greater than 128 µg/mL. In test [2], this compound yielded an EC50 of 30 to 500 µM.

Regarding `CCN1CCN(C(=O)NC(C(=O)N[C@H]2Cc3cccc(C(=O)O)c3OB2O)c2csc(NCCN)n2)C(=O)C1=O` (stereo partly drawn) [Example 63, (3R)-3-(2-(2-((2-aminoethyl)amino)thiazol-4-yl)-2-(4-ethyl-2,3-dioxopiperazine-1-carboxamido)acetamido)-2-hydroxy-3,4-dihydro-2H-benzo[e][1,2]oxaborinine-8-carboxylic acid], the EC50 in test [2] is 30 to 500 µM. Besides, the figures for the MIC in test [4] and in test [5] were less than 64 µg/mL and 64 to 128 µg/mL, respectively.

For `CCN1CCN(C(=O)N[C@@H](C(=O)N[C@H]2Cc3cccc(C(=O)O)c3OB2O)C(C)(C)O)C(=O)C1=O` [Example 86, (R)-3-((R)-2-(4-ethyl-2,3-dioxopiperazine-1-carboxamido)-3-hydroxy-3-methylbutanamido)-2-hydroxy-3,4-dihydro-2H-benzo[e][1,2]oxaborinine-8-carboxylic acid], in test [2], the EC50 lay within 30 to 500 µM. The MIC in test [3] was 32 to 64 µg/mL; in test [4], less than 64 µg/mL; in test [5] it was greater than 128 µg/mL.

For the compound `CCN1CCN(C(=O)NCCN2CCN(C(=O)NC(C(=O)N[C@H]3Cc4cccc(C(=O)O)c4OB3O)c3csc(N)n3)C(=O)C2=O)C(=O)C1=O` (stereo partly drawn) [Example 92, (3R)-3-(2-(2-aminothiazol-4-yl)-2-(4-(2-(4-ethyl-2,3-dioxopiperazine-1-carboxamido)ethyl)-2,3-dioxopiperazine-1-carboxamido)acetamido)-2-hydroxy-3,4-dihydro-2H-benzo[e][1,2]oxaborinine-8-carboxylic acid], the EC50 in test [2] is 30 to 500 µM. Besides, the MIC in test [3] was 128 to 256 µg/mL; in test [4], less than 64 µg/mL; in test [5], greater than 128 µg/mL.

With `CCCCCCN1CCN(C(=O)NC(C(=O)N[C@H]2Cc3cccc(C(=O)O)c3OB2O)c2csc(N)n2)C(=O)C1=O` (stereo partly drawn) [Example 93, (3R)-3-(2-(2-aminothiazol-4-yl)-2-(4-hexyl-2,3-dioxopiperazine-1-carboxamido)acetamido)-2-hydroxy-3,4-dihydro-2H-benzo[e][1,2]oxaborinine-8-carboxylic acid], the EC50 in test [2] is less than 30 µM. Besides, the MIC in test [3] is 128 to 256 µg/mL; in test [4], less than 64 µg/mL; in test [5], 64 to 128 µg/mL.

For `CCCCCCCN1CCN(C(=O)NC(C(=O)N[C@H]2Cc3cccc(C(=O)O)c3OB2O)c2csc(N)n2)C(=O)C1=O` (stereo partly drawn) [Example 94, (3R)-3-(2-(2-aminothiazol-4-yl)-2-(4-heptyl-2,3-dioxopiperazine-1-carboxamido)acetamido)-2-hydroxy-3,4-dihydro-2H-benzo[e][1,2]oxaborinine-8-carboxylic acid], the EC50 in test [2] was less than 30 µM. The MIC was 128 to 256 µg/mL in test [3], less than 64 µg/mL in test [4] and 64 to 128 µg/mL in test [5].
